In patent US20150284375A1 (AJINOMOTO CO., INC., priority 2012, published 2015):

target: T1, human TRPA1 (Homo sapiens, UniProt O75762); test: Measurement of TRPA1 antagonist activity (intracellular calcium increase, FLIPR, allylisothiocyanate stimulation); type: cell-based; conditions: 293T cells transfected with human TRPA1; allylisothiocyanate 20 μM; concentration for 50% inhibitory rate; read-out: antagonism hTRPA1
T1 construct: expressed in transfected cells; host or cells: Human embryonic kidney-derived 293T cells, transiently transfected with the pcDNA3.1/zeo(+) human TRPA1 plasmid
T1 sequence (O75762 whole entry): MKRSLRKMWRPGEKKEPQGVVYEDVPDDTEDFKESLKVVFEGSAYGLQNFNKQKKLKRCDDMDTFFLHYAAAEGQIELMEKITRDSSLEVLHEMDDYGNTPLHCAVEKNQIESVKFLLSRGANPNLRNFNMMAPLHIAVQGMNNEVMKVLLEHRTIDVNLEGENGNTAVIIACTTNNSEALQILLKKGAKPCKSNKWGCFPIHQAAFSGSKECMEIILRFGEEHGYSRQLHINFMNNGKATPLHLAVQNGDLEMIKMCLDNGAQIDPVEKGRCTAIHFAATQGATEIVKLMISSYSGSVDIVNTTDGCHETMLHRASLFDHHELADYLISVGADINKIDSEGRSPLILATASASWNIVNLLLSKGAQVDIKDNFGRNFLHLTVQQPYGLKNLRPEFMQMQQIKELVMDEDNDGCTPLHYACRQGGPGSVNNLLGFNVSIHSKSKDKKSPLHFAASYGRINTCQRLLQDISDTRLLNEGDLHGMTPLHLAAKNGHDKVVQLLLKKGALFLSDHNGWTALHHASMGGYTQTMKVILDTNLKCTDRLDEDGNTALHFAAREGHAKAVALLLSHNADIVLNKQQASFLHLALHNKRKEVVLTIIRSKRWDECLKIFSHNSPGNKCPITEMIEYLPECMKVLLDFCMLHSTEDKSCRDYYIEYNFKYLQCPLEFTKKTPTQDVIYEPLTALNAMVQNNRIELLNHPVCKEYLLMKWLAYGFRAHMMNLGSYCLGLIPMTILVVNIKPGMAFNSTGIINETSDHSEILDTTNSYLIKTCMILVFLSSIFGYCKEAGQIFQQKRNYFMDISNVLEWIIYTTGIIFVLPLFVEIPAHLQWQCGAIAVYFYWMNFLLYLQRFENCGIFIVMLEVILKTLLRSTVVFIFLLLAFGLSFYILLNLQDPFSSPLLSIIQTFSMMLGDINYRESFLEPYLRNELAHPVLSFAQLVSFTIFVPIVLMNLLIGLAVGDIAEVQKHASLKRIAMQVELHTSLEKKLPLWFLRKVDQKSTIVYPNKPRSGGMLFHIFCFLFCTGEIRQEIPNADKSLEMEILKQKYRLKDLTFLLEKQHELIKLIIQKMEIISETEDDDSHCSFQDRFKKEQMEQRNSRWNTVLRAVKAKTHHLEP
Method in brief: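 IC50 derives from a sigmoid fit of inhibition of the 5-min FLIPR fluorescence change evoked by 20 μM allylisothiocyanate, normalized between agonist and buffer responses. Test substance, diluted in HBSS/20 mM HEPES pH 7.2 plus 0.1% BSA, was applied 10 min beforehand at room temperature to Calcium4-loaded 293T cells transiently expressing human TRPA1.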

| Structure (SMILES) | IC50 [nM] |
| --- | --- |
| Cc1ccccc1OCc1ccc(CNC(=O)[C@@H]2CCCN2S(=O)(=O)c2ccc(Cl)s2)cc1 [Example 61, (2S)-1-(5-chlorothiophene-2-sulfonyl)-N-({4-[(2-methyl-phenoxy)methyl]phenyl}methyl)pyrrolidine-2-carboxamide] | 190 |
| COc1ccccc1OCc1ccc(CNC(=O)[C@@H]2CCCN2S(=O)(=O)c2ccc(Cl)s2)cc1 [Example 62, (2S)-1-(5-chlorothiophene-2-sulfonyl)-N-({4-[(2-methoxy-phenoxy)methyl]phenyl}methyl)pyrrolidine-2-carboxamide] | 1100 |
| O=C(NCc1ccc(COc2ccccc2F)cc1)[C@@H]1CCCN1S(=O)(=O)c1ccc(Cl)s1 [Example 63, (2S)-1-(5-chlorothiophene-2-sulfonyl)-N-({4-[(2-fluoro-phenoxy)methyl]phenyl}methyl)pyrrolidine-2-carboxamide] | 440 |
| O=C(NCc1ccc(COc2ccccc2Cl)cc1)[C@@H]1CCCN1S(=O)(=O)c1ccc(Cl)s1 [Example 64, (2S)-N-({4-[(2-chlorophenoxy)methyl]phenyl}methyl)-1-(5-chlorothiophene-2-sulfonyl)pyrrolidine-2-carboxamide] | 480 |
| COC(=O)c1ccccc1OCc1ccc(CNC(=O)[C@@H]2CCCN2S(=O)(=O)c2ccc(Cl)s2)cc1 [Example 66, methyl 2-((4-({[(2S)-1-(5-chlorothiophene-2-sulfonyl)pyrrolidine-2-carbonyl]amino}methyl)phenyl)methoxy)benzoate] | 780 |
| O=C(NCc1ccc(COc2cncc(Cl)c2)cc1)[C@@H]1CCCN1S(=O)(=O)c1ccc(Cl)s1 [Example 67, (2S)-N-({4-[(5-chloro-3-pyridyl)oxymethyl]phenyl}methyl)-1-(5-chlorothiophene-2-sulfonyl)pyrrolidine-2-carboxamide] | 730 |
| O=C(NCc1ccc(COc2ccc3ncccc3c2)cc1)[C@@H]1CCCN1S(=O)(=O)c1ccc(Cl)s1 [Example 68, (2S)-1-(5-chlorothiophene-2-sulfonyl)-N-{[4-(6-quinolyloxy-methyl)phenyl]methyl}pyrrolidine-2-carboxamide] | 4400 |
| O=C(NCc1ccc(COc2cc3ccccc3cn2)cc1)[C@@H]1CCCN1S(=O)(=O)c1ccc(Cl)s1 [Example 69] | 1800 |
| O=C(NCc1cccc(COc2ccccc2)c1)[C@@H]1CCCN1S(=O)(=O)c1ccc(Cl)s1 [Example 70] | 340 |
| O=C(NCc1cccc(COc2ccc(C(F)(F)F)cc2)c1)[C@@H]1CCCN1S(=O)(=O)c1ccc(Cl)s1 [Example 71] | 270 |
| CC(NC(=O)[C@@H]1CCCN1S(=O)(=O)c1ccc(Cl)s1)c1ccc(COc2ccccc2)cc1 (stereo partly shown) [Example 72] | 3800 |
| O=C(NCc1ccc(COc2ccc(C(F)(F)F)cc2)cc1Cl)[C@@H]1CCCN1S(=O)(=O)c1ccc(Cl)s1 [Example 74] | 180 |
| O=C(NCc1ccc(COc2ccccc2)cc1C(F)(F)F)[C@@H]1CCCN1S(=O)(=O)c1ccc(Cl)s1 [Example 76] | 160 |
| O=C(NCc1ccccc1COc1ccccc1)[C@@H]1CCCN1S(=O)(=O)c1ccc(Cl)s1 [Example 79] | 2200 |
| O=C(NCc1ccccc1COc1ccc(C(F)(F)F)cc1)[C@@H]1CCCN1S(=O)(=O)c1ccc(Cl)s1 [Example 80] | 270 |
| O=C(NCc1ccccc1COc1cccc(C(F)(F)F)c1)[C@@H]1CCCN1S(=O)(=O)c1ccc(Cl)s1 [Example 81] | 580 |
| O=C(NCc1ccc(COc2ccccc2)cc1)[C@@H]1CCCN1S(=O)(=O)c1ccc(F)cc1 [Example 82, (2S)-1-[(4-fluorophenyl)sulfonyl]-N-{[4-(phenoxymethyl)phenyl]methyl}pyrrolidine-2-carboxamide] | 1200 |
| O=C(NCc1ccc(COc2ccccc2)cc1)[C@@H]1C=CCN1S(=O)(=O)c1ccc(Cl)s1 [Example 83] | 430 |
| O=C(NCc1ccc(COc2ccccc2)cc1)[C@@H]1CCCN1S(=O)(=O)c1ccc(F)c(F)c1 [Example 84] | 1100 |
| O=C(NCc1ccc(COc2ccccc2)cc1)[C@@H]1CCCN1S(=O)(=O)c1cccc(F)c1 [Example 85] | 3500 |
| O=C(NCc1ccc(COc2ccccc2)cc1)[C@@H]1CCCN1S(=O)(=O)c1cccs1 [Example 86] | 7000 |
| O=C(NCc1ccc(COc2ccccc2)cc1)[C@@H]1CC(O)CN1S(=O)(=O)c1ccc(Cl)s1 (stereo partly shown) [Example 87] | 7700 |
| O=C(NCc1nc(COc2ccc(C(F)(F)F)cc2)cs1)[C@@H]1CCCN1S(=O)(=O)c1ccc(Cl)s1 [Example 88] | 370 |
| O=C(NCc1nc(COc2cccc(C(F)(F)F)c2)cs1)[C@@H]1CCCN1S(=O)(=O)c1ccc(Cl)s1 [Example 89] | 340 |
| O=C(NCc1nc(COc2ccccc2C(F)(F)F)cs1)[C@@H]1CCCN1S(=O)(=O)c1ccc(Cl)s1 [Example 90] | 150 |
| O=C(NCc1ccc(OCc2cccc(C(F)(F)F)c2)cc1)[C@@H]1CCCN1S(=O)(=O)c1ccc(Cl)s1 [Example 93] | 4200 |
| O=C(NCc1ccc(OCc2ccccc2C(F)(F)F)cc1)[C@@H]1CCCN1S(=O)(=O)c1ccc(Cl)s1 [Example 94] | 370 |
| O=C(NCc1c(F)ccc(OCc2ccc(C(F)(F)F)cc2)c1Cl)[C@@H]1CCCN1S(=O)(=O)c1ccc(Cl)s1 [Example 106] | 1200 |
| O=C(NCc1cccc(OCc2ccc(C(F)(F)F)cc2)c1)[C@@H]1CCN1S(=O)(=O)c1ccc(F)cc1 [Example 112] | 230 |

Second part, the molecule after the results:

| IC50 [nM] | Structure (SMILES) |
| --- | --- |
| 150 | O=C(NCc1ccc(COc2ccccc2)cc1Cl)[C@@H]1CCCN1S(=O)(=O)c1ccc(Cl)s1 [Example 73] |
| 140 | O=C(NCc1ccc(COc2cccc(C(F)(F)F)c2)cc1Cl)[C@@H]1CCCN1S(=O)(=O)c1ccc(Cl)s1 [Example 75] |
| 130 | O=C(NCc1ccc(COc2c(F)cccc2F)cc1)[C@@H]1CCCN1S(=O)(=O)c1ccc(Cl)s1 [Example 65, (2S)-1-(5-chlorothiophene-2-sulfonyl)-N-({4-[(2,6-difluoro-phenoxy)methyl]phenyl}methyl)pyrrolidine-2-carboxamide] |
| 130 | O=C(NCc1ccc(F)c(OCc2ccc(C(F)(F)F)cc2)c1F)[C@@H]1CCCN1S(=O)(=O)c1ccc(Cl)s1 [Example 105] |
| 120 | O=C(NCc1ccc(COc2cccc(C(F)(F)F)c2)cc1C(F)(F)F)[C@@H]1CCCN1S(=O)(=O)c1ccc(Cl)s1 [Example 78] |
| 120 | O=C(NCc1cccc(OCc2ccccc2)c1)[C@@H]1CCN1S(=O)(=O)c1ccc(Cl)s1 [Example 109] |
| 110 | O=C(NCc1ccc(OCc2ccc(C(F)(F)F)cc2)cc1)[C@@H]1CCCN1S(=O)(=O)c1ccc(Cl)s1 [Example 92] |
| 100 | O=C(NCc1ccc(COc2ccc(C(F)(F)F)cc2)cc1C(F)(F)F)[C@@H]1CCCN1S(=O)(=O)c1ccc(Cl)s1 [Example 77] |
| 94 | O=C(NCc1ccc(OCc2ccccc2)cc1)[C@@H]1CCCN1S(=O)(=O)c1ccc(Cl)s1 [Example 91] |
| 80 | O=C(NCc1cccc(OCc2ccccc2C(F)(F)F)c1)[C@@H]1CCCN1S(=O)(=O)c1ccc(Cl)s1 [Example 104] |
| 76 | O=C(NCc1cccc(OCc2ccccc2)c1)[C@@H]1CCCN1S(=O)(=O)c1ccc(F)c(F)c1 [Example 110] |
| 71 | O=C(NCc1cccc(OCc2ccc(C(F)(F)F)cc2)c1)[C@@H]1CCCN1S(=O)(=O)c1ccc(Cl)cc1 [Example 113] |
| 66 | O=C(NCc1cccc(OCc2ccccc2)c1)[C@@H]1CCCN1S(=O)(=O)c1ccc(F)cc1 [Example 108] |
| 30 | O=C(NCc1cccc(OCc2ccc(OC(F)(F)F)cc2)c1)[C@@H]1CCCN1S(=O)(=O)c1ccc(Cl)s1 [Example 97] |
| 24 | O=C(NCc1cccc(OCc2ccc(C(F)(F)F)cc2)c1)[C@@H]1C=CCN1S(=O)(=O)c1ccc(F)cc1 [Example 111] |
| 22 | O=C(NCc1cccc(OCc2ccccc2)c1)[C@@H]1CCCN1S(=O)(=O)c1ccc(Cl)s1 [Example 95] |
| 19 | O=C(NCc1cccc(OCc2ccc(C(F)(F)F)cc2)c1)[C@@H]1CCCN1S(=O)(=O)c1ccc(Cl)s1 [Example 96] |
| 16 | O=C(NCc1cccc(OCc2cccc(OC(F)(F)F)c2)c1)[C@@H]1CCCN1S(=O)(=O)c1ccc(Cl)s1 [Example 101] |
| 15 | O=C(NCc1cccc(OCc2cccc(Cl)c2)c1)[C@@H]1CCCN1S(=O)(=O)c1ccc(Cl)s1 [Example 102] |
| 15 | O=C(NCc1cccc(OCc2cccc(F)c2)c1)[C@@H]1CCCN1S(=O)(=O)c1ccc(Cl)s1 [Example 103] |
| 14 | O=C(NCc1cccc(OCc2ccccc2)c1)[C@@H]1C=CCN1S(=O)(=O)c1ccc(Cl)s1 [Example 107, (2S)—N-[(3-benzyloxyphenyl)methyl]-1-(5-chlorothiophene-2-sulfonyl)-2,5-dihydropyrrole-2-carboxamide] |
| 12 | O=C(NCc1cccc(OCc2ccc(F)cc2)c1)[C@@H]1CCCN1S(=O)(=O)c1ccc(Cl)s1 [Example 99] |
| 10 | O=C(NCc1cccc(OCc2ccc(Cl)cc2)c1)[C@@H]1CCCN1S(=O)(=O)c1ccc(Cl)s1 [Example 98] |
| 8.9 | O=C(NCc1cccc(OCc2cccc(C(F)(F)F)c2)c1)[C@@H]1CCCN1S(=O)(=O)c1ccc(Cl)s1 [Example 100] |

same assay, conditions: allylisothiocyanate 20 μM stimulation, FLIPR calcium assay; read-out: antagonism hTRPA1

| IC50 [nM] | Structure (SMILES) |
| --- | --- |
| 570 | O=C(NCc1cccc(Oc2ccnc(C(F)(F)F)c2)c1)[C@@H]1CCCN1S(=O)(=O)c1ccc(F)cc1 [Example 114, (2S)-1-(4-fluorophenyl)sulfonyl-N-[[3-[[2-(trifluoromethyl)-4-pyridyl]oxy]phenyl]methyl]pyrrolidine-2-carboxamide] |
| 210 | O=C(NCc1cccc(Oc2ccc(C(F)(F)F)nc2)c1)[C@@H]1CCCN1S(=O)(=O)c1ccc(F)cc1 [Example 115, (2S)-1-(4-fluorophenyl)sulfonyl-N-[[3-[[6-(trifluoromethyl)-3-pyridyl]oxy]phenyl]methyl]pyrrolidine-2-carboxamide] |
